# Reference: US20240376085A1 (Janssen Pharmaceutica NV, priority 2021, published 2024)
# How the values were obtained:
# [1] = test system: IL-17A-induced G-CSF production in human normal keratinocyte (NHK); assay: NHK assay: IL-17A-induced G-CSF production in normal human keratinocytes; assay type: cell-based; details: 24 h, IL-17A 5 ng/mL, average if tested more than once
# How it was run: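 Stimulus rhIL-17A 5 ng/mL final, premixed 1 h rt with compound; adult NHK, 5% FBS, 0.2% DMSO. Viability by CellTiter-Glo vs DMSO.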
# [2] = molecular target: T1, IL-17A : IL-17RA binding (Homo sapiens, UniProt Q16552, K93Q); assay: IL-17A(FLAG-tagged):IL-17RA(His-tagged) binding disruption Eu-HTRF assay, Protocol 1; details: FLAG-IL-17A 2.5 nM at 2x final concentration; average if tested more than once
# T1 construct: Name: IL-17A-Flag
# T1 sequence (Q16552 with tags, fused parts or gaps K93Q): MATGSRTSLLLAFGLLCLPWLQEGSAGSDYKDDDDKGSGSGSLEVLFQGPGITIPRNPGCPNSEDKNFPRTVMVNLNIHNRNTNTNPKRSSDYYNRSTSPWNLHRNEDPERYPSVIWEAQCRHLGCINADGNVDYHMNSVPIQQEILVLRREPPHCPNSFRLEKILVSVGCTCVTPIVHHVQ
# How it was run: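 IC50 came from a one-site competition fit of the acceptor/donor (665/620 nm) HTRF ratio. His-tagged IL-17RA, Eu-anti-FLAG and D2-anti-His were added after a 1 h rt compound preincubation with FLAG-tagged IL-17A dimer in PBS/0.01% Triton X-100, followed by 2 h at rt before reading.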
IC50 [2] [nM],Compound,"IC50 ([1]; Homo sapiens, Keratinocyte) [nM]",IC50 [1] [nM]
> 100,"C[C@@H](NC(=O)CCC(F)(F)F)c1ccc2[nH]c([C@@H](NC(=O)[C@H]3CC[C@@H]3CF)C3CCC(F)(F)CC3)nc2c1 (single isomer, unassigned) [Example 114]",> 100,–
> 100,"C[C@@H](NC(=O)CCC(F)(F)F)c1ccc2[nH]c([C@@H](NC(=O)C3(C)CC3(F)F)C3CCC(F)(F)CC3)nc2c1 (relative stereo) [Example 109, N—((S)-(4,4-Difluorocyclohexyl)(5-((R*)-1-(4,4,4-trifluorobutanamido)ethyl)-1H-benzo[d]imidazol-2-yl)methyl)-2,2-difluoro-1-methylcyclopropane-1-carboxamide]",> 100,–
50 to 100,"[2H]C([2H])([2H])n1nccc1C(=O)N[C@@H](COC(C)(C)C(F)(F)F)c1nc2cc([C@H](NC(=O)CC3CC(F)(F)C3)C3CC3)ccc2[nH]1 [Example 167, N—((R)-1-(5-((R)-Cyclopropyl(2-(3,3-difluorocyclobutyl)acetamido)methyl)-1H-benzo[d]imidazol-2-yl)-2-((1,1,1-trifluoro-2-methylpropan-2-yl)oxy)ethyl)-1-(methyl-d3)-1H-pyrazole-5-carboxamide]",50 to 100,–
> 100,"C[C@@H](NC(=O)CCC(F)(F)F)c1ccc2[nH]c([C@@H](NC(=O)c3cn(CC4CCC4)nc3C(N)=O)C3CCC(F)(F)CC3)nc2c1 [Example 89, 1-(Cyclobutylmethyl)-N^4—((S)-(4,4-difluorocyclohexyl)(5-((R)-1-(4,4,4-trifluorobutanamido)ethyl)-1H-benzo[d]imidazol-2-yl)methyl)-1H-pyrazole-3,4-dicarboxamide]",> 100,–
> 100,"C[C@@H](NC(=O)CCC(F)(F)F)c1ccc2[nH]c([C@@H](NC(=O)c3cc(CCC(F)(F)F)no3)C3CCC(F)(F)CC3)nc2c1 [Example 215, N—((S)-(4,4-Difluorocyclohexyl)(5-((R)-1-(4,4,4-trifluorobutanamido)ethyl)-1H-benzo[d]imidazol-2-yl)methyl)-3-(3,3,3-trifluoropropyl)isoxazole-5-carboxamide]",> 100,–
> 100,"C[C@@H](NC(=O)CCC(F)(F)F)c1ccc2[nH]c([C@@H](NC(=O)c3cnnn3CC3CC3(F)F)C3CCC(F)(F)CC3)nc2c1 (stereo partly drawn) [Example 80, N—((S)-(4,4-Difluorocyclohexyl)(5-((R)-1-(4,4,4-trifluorobutanamido)ethyl)-1H-benzo[d]imidazol-2-yl)methyl)-1-((2,2-difluorocyclopropyl)methyl)-1H-1,2,3-triazole-5-carboxamide]",50 to 100,–
50 to 100,"CC(C)n1nccc1C(=O)N[C@@H](COC(C)C(F)(F)F)c1nc2ccc([C@H](NC(=O)CC3CC(F)(F)C3)C3CC3)cc2[nH]1 (relative stereo) [Example 156, N—((R*)-1-(6-((R)-Cyclopropyl(2-(3,3-difluorocyclobutyl)acetamido)methyl)-1H-benzo[d]imidazol-2-yl)-2-(((R)-1,1,1-trifluoropropan-2-yl)oxy)ethyl)-1-isopropyl-1H-pyrazole-5-carboxamide]",50 to 100,–
> 100,"CCC(NC(=O)CCC(F)(F)F)c1ccc2[nH]c([C@@H](NC(=O)c3ccnn3C)C3CCC(F)(F)CC3)nc2c1 (single isomer, unassigned) [Example 53, N—((S)-(4,4-Difluorocyclohexyl)(5-((R*)-1-(4,4,4-trifluorobutanamido)propyl)-1H-benzo[d]imidazol-2-yl)methyl)-1-methyl-1H-pyrazole-5-carboxamide]",–,50 to 100
50 to 100,"C[C@@H](NC(=O)CCC(F)(F)F)c1ccc2[nH]c([C@@H](NC(=O)c3conc3CCC(F)(F)F)C3CCC(F)(F)CC3)nc2c1 [Example 214, N—((S)-(4,4-Difluorocyclohexyl)(5-((R)-1-(4,4,4-trifluorobutanamido)ethyl)-1H-benzo[d]imidazol-2-yl)methyl)-3-(3,3,3-trifluoropropyl)isoxazole-4-carboxamide]",< 50,–
